Where two headings read alike, the source gives them in different places.
Tests used:
[1] = test system: melanoma A375 cells; conditions: for IC50: 72 h
Experimental: (§2) A375, U87, A549 cell line, which were obtained from the National Platform of Experimental Cell Resources for Sci-Tech (Beijing, China), were cultured in Dulbecco’s modified Eagle’s medium (DMEM; Hyclone, Logan, UT, USA), supplemented with 10% heat-inactivated FBS (Hyclone), 100 U/mL penicillin, and 100 μg/mL streptomycin (Wako Pure Chemical Industries, Ltd., Osaka, Japan).
(§3) The cytotoxicity of the RGD-MKE1 conjugates on A375 melanoma cells, ERK signal pathway hyper-activated cell line, was studied in vitro by using an SRB assay. A375 cells (4.5 × 10^3) or U87 cells (5.0 × 10^3) were plated in each well of a 96-well tissue culture plate. Medium supplemented with 10% FBS was added, and cells were allowed to adhere for 24h. […] Then the medium was removed from the 96-well plate, and 10% ice-cold trichloroacetic acid (TCA, 200 μL) was added. The plate was kept at 4 for one hour after which was washed five times with deionized water, then stained with Sulforhodamine B (SRB, 100 μL, Sigma, St. Louis, MO, USA) before air drying. After washing with 1% acetic acid, the bound dye was solubilized with Tris base A (Sigma) and 100 μL of each sample were transferred into a 96-well plate, and then absorbance was read in a 96-well plate reader at 540 nm.Inhibitory ratio (%) = [(ODcontrol − ODtreated)/(ODcontrol)] × 100%.

[2] = test system: melanoma A375 cells; experiment: cells; conditions: Homo sapiens, A-375, 72 h
Experimental: as §2, §3

[3] = target: inactive MEK1 kinase (Homo sapiens, UniProt Q02750); experiment: HTRF phosphor-MEK1 assay (BRAF-MEK1 assay); format: biochemical; conditions: for BRAF-MEK1 assay (%) 0.01μM / BRAF-MEK1 assay (%) 0.1 μM / BRAF-MEK1 assay (%) 1 μM: inhibition of phosphorylation of inactive MEK1, mean of three ± SD
Sequence of inactive MEK1 kinase (Q02750 whole entry): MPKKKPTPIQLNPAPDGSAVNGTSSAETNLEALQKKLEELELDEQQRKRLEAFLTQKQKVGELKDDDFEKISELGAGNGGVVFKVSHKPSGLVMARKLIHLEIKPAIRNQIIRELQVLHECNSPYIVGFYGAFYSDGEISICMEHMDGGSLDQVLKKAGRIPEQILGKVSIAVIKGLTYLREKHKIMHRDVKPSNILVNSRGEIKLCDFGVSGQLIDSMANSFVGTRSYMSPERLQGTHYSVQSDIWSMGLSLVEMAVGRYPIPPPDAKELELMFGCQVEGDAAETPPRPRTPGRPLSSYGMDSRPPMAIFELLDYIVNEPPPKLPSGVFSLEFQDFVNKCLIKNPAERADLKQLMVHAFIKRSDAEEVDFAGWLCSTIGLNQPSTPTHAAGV
Experimental: (§1) Phosphorylated MEK1 was determined quantitatively by formation of a complex with specific Eu-labeled anti-phospho p44/42 MAPK (Thr202/Tyr204) antibody and anti-GST-XL665.After 3 h, time-resolved fluorescence was read using a FlexStation 3 plate reader (Molecular Devices, Sunnyvale, CA, USA). […] The curve-fitting software GraphPad Prism 4.0 was used to generate the curves and determine the IC50 values. […] The calculation method of HTRF ratio was the same with that in HTRF phosphor-MEK1 assay.

[4] = target: T1, active MEK1 kinase (Homo sapiens, UniProt Q02750); experiment: HTRF phosphor-ERK2 assay (MEK1-ERK2 assay); format: biochemical; conditions: inhibition of active MEK1 phosphorylating inactive ERK2, mean of three ± SD
T1 construct: purchased Carna Biosciences
T1 sequence (Q02750 whole entry): as above
Experimental: as §1

[5] = test system: p-ERK1/2 in melanoma A375 cells; experiment: Western blotting of p-ERK1/2 in A375 cell lysates; format: cell-based; conditions: 10 μM, 2 h
Experimental: To evaluate the expression levels of ERK singal pathway after treated with conjugates, A375 cells were treated with compounds for 2 h respectively. Confluent cells were washed with ice-cold phosphate-buffered saline (PBS), and treated with lysis buffer (Beyotime Institute of Biotechnology, Suzhou, China) on ice for 1 h. Then the lysates were collected by scraping from the plates and then centrifuged at 13,000 rpm at 4 °C for 15 min. The protein concentration was quantitated using a Pierce BCA Protein Assay Kit (Thermo Scientific, Rockford, IL, USA) ona FlexStation 3 Benchtop Multi-Mode Microplate Reader at 562 nm (Molecular Devices). An equal amount of proteins (10 μg per lane) for each sample were analyzed by SDS-PAGE on a 10% gel. After electro-blotting to PVDF membrane (Millipore, Billerica, MA, USA) at 400 mA for 1 h, membranes were blocked with 5% nonfat dry milk for 1 h at room temperature. Membrane were washed with 0.1% PBST three times and then incubated with primary antibodies overnight at 4 °C. Antibodies against pERK and ERK (Cell Signaling Technology, Inc., Danvers, MA, USA) were utilized as the primary antibodies. […] Finally, protein products were analyzedby Image Lab^TM software(ChemiDoc^TM XRS System, BIO-RAD, Hercules, CA, USA) with. […]

[6] = test system: U87 glioblastoma cells; experiment: In vitro anti-proliferation assay by the SRB method, U87; format: cell-based, human
Experimental: as §2, §3

| Compound | BRAF-MEK1 assay (%) 0.01μM [3] | BRAF-MEK1 assay (%) 0.1 μM [3] | BRAF-MEK1 assay (%) 1 μM [3] | MEK1-ERK2 assay (%) 1 μM [4] | MEK1-ERK2 assay (%) 10 μM [4] | further results |
| --- | --- | --- | --- | --- | --- | --- |
| O=C(O)CCC(=O)OC[C@H](O)CONC(=O)c1ccc(F)c(F)c1Nc1ccc(I)cc1F [Compound 11, (S)-4-(3-((3,4-difluoro-2-((2-fluoro-4-iodophenyl)amino)benzamido)oxy)-2-hydroxypropoxy)-4-oxobutanoic Acid] |  |  |  |  |  | fold loss of antitumor efficacy compared to 13 ([1]; A375 IC50 vs 13): ~10 fold; IC50 ([2]; read-out: A375 proliferation assay IC50): 230 nM |
| O=C(O)CCC(=O)NCCCONC(=O)c1ccc(F)c(F)c1Nc1ccc(I)cc1F [Compound 8b, 4-((3-((3,4-Difluoro-2-((2-fluoro-4-iodophenyl)amino)benzamido)oxy)propyl)amino)-4-oxobutanoic acid] | 12.5 ± 3.2% | 39.6 ± 9.3% | 57.5 ± 1.7% | 29.1 ± 12.0% | 83.4 ± 1.2% | IC50 ([2]; read-out: A375 cell IC50): 14200 nM |
| O=C(O)CCC(=O)NCCCCONC(=O)c1ccc(F)c(F)c1Nc1ccc(I)cc1F [Compound 8c, 4-((4-((3,4-Difluoro-2-((2-fluoro-4-iodophenyl)amino)benzamido)oxy)butyl)amino)-4-oxobutanoic acid] |  |  |  |  |  | melting point: 120.9 to 121.9 °C |
| c(RGDyK) [cRGD peptides, reference compound] |  |  |  |  |  | inhibition of the phosphorylation of ERK1/2 protein [5]: no inhibitory activity |
| N=C(N)NCCC[C@@H]1NC(=O)[C@H](CCCCNC(=O)CCC(=O)NCCONC(=O)c2ccc(F)c(F)c2Nc2ccc(I)cc2F)NC(=O)[C@@H](Cc2ccc(O)cc2)NC(=O)[C@H](CC(=O)O)NC(=O)CNC1=O [Compound 9a] | 0.3 ± 0.0% | 30.0 ± 4.7% | 74.2 ± 7.2% | 66.5 ± 7.7% | 88.4 ± 1.4% | IC50 [1]: 4400 nM |
| O=C(NOC[C@H](O)CO)c1ccc(F)c(F)c1Nc1ccc(I)cc1F [PD0325901, reference compound] |  |  |  |  |  | IC50 ([2]; read-out: A375 cell IC50): 0.45 nM; inhibition at 1 µM ([6]; Homo sapiens, U-87 MG, high concentrations (>1 µM), concentration-independent, 72 h, read-out: inhibitory activity in U87 cells): ~50% |
| N=C(N)NCCC[C@@H]1NC(=O)[C@H](CCCCNC(=O)CCC(=O)NCCCONC(=O)c2ccc(F)c(F)c2Nc2ccc(I)cc2F)NC(=O)[C@@H](Cc2ccc(O)cc2)NC(=O)[C@H](CC(=O)O)NC(=O)CNC1=O [Compound 9b] | 6.7 ± 8.5% | 58.5 ± 8.5% | 77.6 ± 7.5% | 69.9 ± 3.2% | 93.5 ± 2.2% | IC50 [1]: 2100 nM; U87 cell-growth inhibition ([6]; 10 µM, SRB method): 21.3%; inhibition of the phosphorylation of ERK1/2 protein [5]: up to 90%; IC50 [3]: 47.9 nM |
| NCCOCCONC(=O)c1ccc(F)c(F)c1Nc1ccc(I)cc1F [Compound 7e, N-(2-(2-aminoethoxy)ethoxy)-3,4-difluoro-2-((2-fluoro-4-iodophenyl)amino)benzamide] |  |  |  |  |  | melting point: 197.5 to 198.5 °C |

Reference: article PMC6269693, “Synthesis and Biological Evaluation of RGD-Conjugated MEK1/2 Kinase Inhibitors for Integrin-Targeted Cancer Therapy” (Molecules, 2013)
